We go through 16 compounds from Sander's compilation of Henry's law constants (doi:10.1002/etc.5620090606).

The series is described as follows: Henry solubility constant Hcp at 298.15 K (mol/(m3 Pa)). As to conditions: reference: Fendinger and Glotfelty (1990).
In the case of `Cc1cccc2ccccc12` [1-methylnaphthalene], the “Henry solubility constant Hcp” value amounted to 0.016.
As to `Clc1ccccc1-c1ccccc1Cl` [2,2'-dichlorobiphenyl], the “Henry solubility constant Hcp” value stood at 0.04.
With `c1ccc2c(c1)Cc1ccccc1-2` [2,3-benzindene], the “Henry solubility constant Hcp” value came out at 0.16.
Regarding `Cc1ccc2ccccc2c1` [2-methylnaphthalene], the “Henry solubility constant Hcp” value was determined as 0.031.
Turning to `Clc1ccc(-c2ccc(Cl)cc2)cc1` [4,4'-dichlorobiphenyl], the “Henry solubility constant Hcp” value amounted to 0.1.
Regarding `c1cc2c3c(cccc3c1)CC2` [acenaphthene], the “Henry solubility constant Hcp” value is 0.16.
`C1=Cc2cccc3cccc1c23` [acenaphthylene]: the “Henry solubility constant Hcp” value amounted to 0.088.
In the case of `c1ccc2cc3ccccc3cc2c1` [anthracene] it was 0.51; in that of `c1ccc(-c2ccccc2)cc1` [biphenyl], 0.051.
In the case of `CCOP(=S)(OCC)Oc1nc(Cl)c(Cl)cc1Cl` [chlorpyrifos] it was 2.4.
For the compound `CCOC(=O)CC(SP(=S)(OC)OC)C(=O)OCC` (stereo unspecified) [malathion], the “Henry solubility constant Hcp” value was found to be 2000.
For the compound `COP(=S)(OC)Oc1ccc([N+](=O)[O-])cc1` [methylparathion], the “Henry solubility constant Hcp” value was 160.
As to `c1ccc2ccccc2c1` [naphthalene], the “Henry solubility constant Hcp” value was 0.013.
Consider `CCOP(=S)(OCC)Oc1ccc([N+](=O)[O-])cc1` [parathion], for which the “Henry solubility constant Hcp” value is 120.
In the case of `CCC(CC)Nc1c([N+](=O)[O-])cc(C)c(C)c1[N+](=O)[O-]` [penoxaline] it was 12; in that of `c1ccc2c(c1)ccc1ccccc12` [phenanthrene], 0.42.
